Laboratory results as given in PubChem BioAssay AID2060504 (Molecular Pharmacology Branch, DTP, NCI, 2025).

Test system: 636577-100-R-J1-PDC complex spheroid viability
Experiment: Anticancer human tumor 636577-100-R-J1-PDC patient-derived endometrial adenocarcinoma cell line growth inhibition [GQUAD]
Settings: for IC50: curve of first compound; for viability, T/C: stronger effect = lower value; active = viability on the fitted dose curve at most 10% of control; inactive = the rest
In short: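 Multi-cell-type spheroids of tumor cells with HUVEC and mesenchymal stem cells, treated with drug combinations. Concentrations descend in half-log steps from near clinical Cmax, or from 10 microM where Cmax is unknown; viability read-out.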

[1] = second compound 0.0316 µM, first compound 0.0316 µM
[2] = second compound 0.0316 µM, first compound 0.316 µM
[3] = second compound 0.1 µM, first compound 0.0316 µM
[4] = second compound 0.1 µM, first compound 0.316 µM
[5] = second compound 0.316 µM, first compound 0.0316 µM
[6] = second compound 0.316 µM, first compound 0.316 µM
[7] = second compound 1 µM, first compound 0.0316 µM
[8] = second compound 1 µM, first compound 0.316 µM
[9] = second compound 3.16 µM, first compound 0.0316 µM
[10] = second compound 3.16 µM, first compound 0.316 µM
[11] = second compound 10 µM, first compound 0.0316 µM
[12] = second compound 10 µM, first compound 0.316 µM
[13] = second compound 0.0316 µM, first compound 0.1 µM
[14] = second compound 0.0316 µM, first compound 1 µM
[15] = second compound 0.0316 µM, first compound 3.16 µM
[16] = second compound 0.0316 µM, first compound 10 µM
[17] = second compound 0.1 µM, first compound 0.1 µM
[18] = second compound 0.1 µM, first compound 1 µM
[19] = second compound 0.1 µM, first compound 3.16 µM
[20] = second compound 0.1 µM, first compound 10 µM
[21] = second compound 0.316 µM, first compound 0.1 µM
[22] = second compound 0.316 µM, first compound 1 µM
[23] = second compound 0.316 µM, first compound 3.16 µM
[24] = second compound 0.316 µM, first compound 10 µM
[25] = second compound 1 µM, first compound 0.1 µM
[26] = second compound 1 µM, first compound 1 µM
[27] = second compound 1 µM, first compound 3.16 µM
[28] = second compound 1 µM, first compound 10 µM
[29] = second compound 3.16 µM, first compound 0.1 µM
[30] = second compound 3.16 µM, first compound 1 µM
[31] = second compound 3.16 µM, first compound 3.16 µM
[32] = second compound 3.16 µM, first compound 10 µM
[33] = second compound 10 µM, first compound 0.1 µM
[34] = second compound 10 µM, first compound 1 µM
[35] = second compound 10 µM, first compound 3.16 µM
[36] = second compound 10 µM, first compound 10 µM
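Also: viability read after seven days of drug exposure.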
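For viability, T/C in this document: luminescence signal used as a proxy for viable cells; 100% = DMSO vehicle control wells.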

Cc1[nH]c2ccccc2c1CCNCc1ccc(/C=C/C(=O)NO)cc1 + Cc1[nH]c2ccc(F)cc2c1-c1nc2c3cccnc3c3ncccc3c2[nH]1
4.08 nM: IC50 (second compound 1 µM)
4.27 nM: IC50 (second compound 0.1 µM)
active: viability, T/C [2] 10.2% | viability, T/C [4] 12.1% | viability, T/C [6] 10.4% | viability, T/C [10] 7.69% | viability, T/C [12] 10.7%
inactive: viability, T/C (second compound 0.0316 µM, first compound 0.000999 µM) 85.4% | viability, T/C (second compound 0.0316 µM, first compound 0.00316 µM) 50.4% | viability, T/C (second compound 0.0316 µM, first compound 0.00999 µM) 37.9% | viability, T/C [1] 17.2% | viability, T/C (second compound 0.0316 µM, first compound 0.0999 µM) 8.47% | viability, T/C (second compound 0.1 µM, first compound 0.000999 µM) 76.9% | viability, T/C (second compound 0.1 µM, first compound 0.00316 µM) 50.8% | viability, T/C (second compound 0.1 µM, first compound 0.00999 µM) 41.8% | viability, T/C [3] 14.9% | viability, T/C (second compound 0.1 µM, first compound 0.0999 µM) 7.94% | viability, T/C (second compound 0.316 µM, first compound 0.000999 µM) 80.3% | viability, T/C (second compound 0.316 µM, first compound 0.00316 µM) 37.7% | viability, T/C (second compound 0.316 µM, first compound 0.00999 µM) 32.9% | viability, T/C [5] 16.5% | viability, T/C (second compound 0.316 µM, first compound 0.0999 µM) 7.47% | viability, T/C (second compound 1 µM, first compound 0.000999 µM) 51.6% | viability, T/C (second compound 1 µM, first compound 0.00316 µM) 59.6% | viability, T/C (second compound 1 µM, first compound 0.00999 µM) 30.3% | viability, T/C [7] 15.5% | viability, T/C (second compound 1 µM, first compound 0.0999 µM) 9.36% | viability, T/C [8] 8.79% | viability, T/C (second compound 3.16 µM, first compound 0.000999 µM) 23.2% | viability, T/C (second compound 3.16 µM, first compound 0.00316 µM) 27.4% | viability, T/C (second compound 3.16 µM, first compound 0.00999 µM) 23.9% | viability, T/C [9] 17.2% | viability, T/C (second compound 3.16 µM, first compound 0.0999 µM) 9.73% | viability, T/C (second compound 10 µM, first compound 0.000999 µM) 32.9% | viability, T/C (second compound 10 µM, first compound 0.00316 µM) 34% | viability, T/C (second compound 10 µM, first compound 0.00999 µM) 23.1% | viability, T/C [11] 13.5% | viability, T/C (second compound 10 µM, first compound 0.0999 µM) 9.1%
3.82 nM: IC50 (second compound 0.0316 µM)
2.57 nM: IC50 (second compound 0.316 µM)
< 0.999 nM: IC50 (second compound 3.16 µM) | IC50 (second compound 10 µM)

O=C(NO)c1cnc(N2CCN(S(=O)(=O)c3ccc4ccccc4c3)CC2)nc1 + Cc1[nH]c2ccc(F)cc2c1-c1nc2c3cccnc3c3ncccc3c2[nH]1
51.2 nM: IC50 (second compound 0.0316 µM)
46.3 nM: IC50 (second compound 1 µM)
active: viability, T/C [2] 11.5% | viability, T/C [14] 7.28% | viability, T/C [15] 0.23% | viability, T/C [16] 0.1% | viability, T/C [18] 5.55% | viability, T/C [19] 0.5% | viability, T/C [20] 0.09% | viability, T/C [22] 7.41% | viability, T/C [23] 1% | viability, T/C [24] 0.08% | viability, T/C [26] 6.03% | viability, T/C [27] 1.47% | viability, T/C [28] 0.08% | viability, T/C [30] 7.07% | viability, T/C [31] 2.05% | viability, T/C [32] 0.09% | viability, T/C [34] 6.09% | viability, T/C [35] 2.61% | viability, T/C [36] 0.11%
inactive: viability, T/C [1] 69.7% | viability, T/C [13] 21.1% | viability, T/C [3] 68.2% | viability, T/C [17] 33.2% | viability, T/C [4] 15.2% | viability, T/C [5] 60.2% | viability, T/C [21] 31.4% | viability, T/C [6] 17.2% | viability, T/C [7] 60.2% | viability, T/C [25] 29% | viability, T/C [8] 16.6% | viability, T/C [9] 25.8% | viability, T/C [29] 19.7% | viability, T/C [10] 17.1% | viability, T/C [11] 29.5% | viability, T/C [33] 22.4% | viability, T/C [12] 14.3%
57.7 nM: IC50 (second compound 0.1 µM)
47.6 nM: IC50 (second compound 0.316 µM)
< 31.6 nM: IC50 (second compound 3.16 µM) | IC50 (second compound 10 µM)

CC1COCCN1c1cc(C2(S(C)(=N)=O)CC2)nc(-c2ccnc3[nH]ccc23)n1 (stereo not drawn) + Cc1cnc(CNC(=O)c2c(=O)c3ccc(N4CCCN(C)CC4)nc3n3c2sc2ccccc23)cn1
< 31.6 nM: IC50 (second compound 0.1 µM) | IC50 (second compound 0.316 µM) | IC50 (second compound 1 µM) | IC50 (second compound 3.16 µM) | IC50 (second compound 10 µM)
239 nM: IC50 (second compound 0.0316 µM)
inactive: viability, T/C [1] 56.2% | viability, T/C [13] 50% | viability, T/C [2] 54.1% | viability, T/C [14] 30.5% | viability, T/C [15] 45.3% | viability, T/C [16] 12.3% | viability, T/C [3] 30.8% | viability, T/C [17] 29.6% | viability, T/C [4] 33.5% | viability, T/C [18] 21.7% | viability, T/C [19] 27.5% | viability, T/C [20] 12.2% | viability, T/C [5] 23.4% | viability, T/C [21] 24.4% | viability, T/C [6] 25.2% | viability, T/C [22] 22% | viability, T/C [23] 24.2% | viability, T/C [24] 14.5% | viability, T/C [7] 21.1% | viability, T/C [25] 22.7% | viability, T/C [8] 21.8% | viability, T/C [26] 18.3% | viability, T/C [27] 24.8% | viability, T/C [28] 9.7% | viability, T/C [9] 18.5% | viability, T/C [29] 18.5% | viability, T/C [10] 21.2% | viability, T/C [30] 19.4% | viability, T/C [31] 21.5% | viability, T/C [32] 14.3% | viability, T/C [11] 16.9% | viability, T/C [33] 22.2% | viability, T/C [12] 23.4% | viability, T/C [34] 22.7% | viability, T/C [35] 23% | viability, T/C [36] 13.2%

COc1ccc([C@@H](O)c2cc(-c3ncnc4cc(N5CCOCC5)ccc34)c(F)cc2Cl)nn1 + Cc1cnc(CNC(=O)c2c(=O)c3ccc(N4CCCN(C)CC4)nc3n3c2sc2ccccc23)cn1
inactive: viability, T/C [1] 47.1% | viability, T/C [13] 42.8% | viability, T/C [2] 20% | viability, T/C [14] 10.8% | viability, T/C [3] 30.6% | viability, T/C [17] 22% | viability, T/C [4] 15.2% | viability, T/C [18] 12.2% | viability, T/C [19] 13.5% | viability, T/C [20] 11.6% | viability, T/C [5] 22.8% | viability, T/C [21] 21.2% | viability, T/C [6] 13% | viability, T/C [22] 13.2% | viability, T/C [23] 13.6% | viability, T/C [24] 12.8% | viability, T/C [7] 18.2% | viability, T/C [25] 18.3% | viability, T/C [8] 13.8% | viability, T/C [26] 15.4% | viability, T/C [27] 14.1% | viability, T/C [28] 10.8% | viability, T/C [9] 20.3% | viability, T/C [29] 17.9% | viability, T/C [10] 18% | viability, T/C [30] 16.1% | viability, T/C [31] 16.6% | viability, T/C [32] 13.6% | viability, T/C [11] 19.5% | viability, T/C [33] 21.2% | viability, T/C [12] 19.6% | viability, T/C [34] 18.5% | viability, T/C [35] 16.5% | viability, T/C [36] 14.5%
< 31.6 nM: IC50 (second compound 0.0316 µM) | IC50 (second compound 0.1 µM) | IC50 (second compound 0.316 µM) | IC50 (second compound 1 µM) | IC50 (second compound 3.16 µM) | IC50 (second compound 10 µM)
active: viability, T/C [15] 9.47% | viability, T/C [16] 9.92%
